Legend:
[1] = Inhibition of epinephrine induced human blood platelet aggregation; format: functional
[2] = Inhibition of ADP induced human blood platelet aggregation; format: functional
Rattus norvegicus [3] = species on record: Rattus norvegicus; test: Alpha-1-adrenoceptor blocking activity by antagonism of (-)-norepinephrine induced contractions of epididymal portion of rat vas deferens; format: functional
[4] = molecular target: Adrenergic receptor alpha (Rattus norvegicus) (UniProt P15823+P23944+P43140+P22086+P19328+P22909); test: Ratio of IC50 towards alpha1 to alpha-2 receptors of rat vas deferens; format: protein assay
Rattus norvegicus [5] = species on record: Rattus norvegicus; test: Alpha-1-adrenoceptor blocking activity by antagonism of (-)-norepinephrine induced contractions of epididymal portion of rat vas deferens; Inactive up to a concentration of 20 uM; format: functional
[6] = molecular target: T1, Adrenergic receptor alpha-2 (Rattus norvegicus, UniProt P22086+P19328+P22909); test: Alpha-2 adrenergic receptor blocking activity by antagonism of clonidine induced depression of twitch response of field stimulated prostatic portion of rat vas deferens; format: functional, tissue-based
T1 sequence (P22086 whole entry): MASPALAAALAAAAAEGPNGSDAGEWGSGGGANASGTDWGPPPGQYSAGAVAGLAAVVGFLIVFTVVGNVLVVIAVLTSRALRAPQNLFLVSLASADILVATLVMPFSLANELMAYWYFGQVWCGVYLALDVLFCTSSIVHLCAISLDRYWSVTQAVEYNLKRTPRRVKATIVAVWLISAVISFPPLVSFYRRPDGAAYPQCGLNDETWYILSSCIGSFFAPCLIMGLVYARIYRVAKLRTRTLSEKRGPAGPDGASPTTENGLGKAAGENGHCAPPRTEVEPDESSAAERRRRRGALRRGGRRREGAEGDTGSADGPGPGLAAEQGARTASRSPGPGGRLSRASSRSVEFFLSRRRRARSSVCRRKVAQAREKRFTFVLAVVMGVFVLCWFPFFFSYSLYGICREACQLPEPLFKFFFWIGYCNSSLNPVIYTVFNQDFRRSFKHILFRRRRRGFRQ
T1 sequence (P19328 whole entry): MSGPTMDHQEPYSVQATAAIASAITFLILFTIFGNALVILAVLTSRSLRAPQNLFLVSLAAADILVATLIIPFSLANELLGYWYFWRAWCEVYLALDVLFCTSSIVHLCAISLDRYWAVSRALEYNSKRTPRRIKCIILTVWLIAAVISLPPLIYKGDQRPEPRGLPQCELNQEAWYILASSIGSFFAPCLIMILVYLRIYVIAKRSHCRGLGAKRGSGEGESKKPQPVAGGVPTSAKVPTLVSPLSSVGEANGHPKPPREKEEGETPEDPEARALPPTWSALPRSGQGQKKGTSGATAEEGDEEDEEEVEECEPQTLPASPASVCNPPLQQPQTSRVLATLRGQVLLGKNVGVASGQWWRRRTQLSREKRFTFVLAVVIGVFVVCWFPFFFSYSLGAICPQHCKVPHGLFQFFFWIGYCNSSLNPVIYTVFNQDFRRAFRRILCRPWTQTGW
T1 sequence (P22909 whole entry): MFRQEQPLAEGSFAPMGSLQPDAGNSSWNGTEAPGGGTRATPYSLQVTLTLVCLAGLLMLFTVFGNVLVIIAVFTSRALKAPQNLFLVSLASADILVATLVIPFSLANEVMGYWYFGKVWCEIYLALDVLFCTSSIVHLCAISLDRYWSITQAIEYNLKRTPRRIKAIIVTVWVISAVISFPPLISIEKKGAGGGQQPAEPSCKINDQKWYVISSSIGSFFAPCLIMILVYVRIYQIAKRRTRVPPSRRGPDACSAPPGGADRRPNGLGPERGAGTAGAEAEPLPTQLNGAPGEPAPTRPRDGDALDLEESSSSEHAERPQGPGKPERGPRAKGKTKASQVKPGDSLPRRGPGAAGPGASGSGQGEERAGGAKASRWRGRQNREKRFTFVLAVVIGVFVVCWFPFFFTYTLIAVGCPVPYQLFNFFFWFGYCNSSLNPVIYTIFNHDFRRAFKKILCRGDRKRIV

Compound	IC50 [1] [nM]	IC50 [2] [µM]	IC50 (Rattus norvegicus [3]) [µM]	Selectivity [4]	IC50 (Rattus norvegicus [5])	IC50 [6] [µM]
Nc1ncnc2c1ncn2[C@@H]1O[C@H](CO)[C@@H](O)[C@H]1O [ADENOSINE]	1800	2.5				
C1=CC(CNCCCCCCCCCCCCNCCSSCCNCCCCCCCCCCCCNCC2C=CC=N2)N=C1 (stereo unspecified)			7.3	< 0.37		
COc1ccccc1CNCCCCCC(=O)NCCCCCCNCCSSCCNCCCCCCNC(=O)CCCCCNCc1ccccc1OC					Not Active	
COc1ccccc1CNCCCCCCNCCSSCCNCCCCCCNCc1ccccc1OC [BENEXTRAMINE]	31300	97	7.55	9.2		0.82
COc1ccccc1CNCCCCCCCCCCCCN(C)CCSSCCN(C)CCCCCCCCCCCCNCc1ccccc1OC			46.9	< 2.35		
COc1ccccc1CNCCCCCNCCSSCCNCCCCCNCc1ccccc1OC	46000	87	55.8	2.16		25.8
COc1ccccc1CNCCC(=O)NCCCCCCCCNCCSSCCNCCCCCCCCNC(=O)CCNCc1ccccc1OC					Not Active	
COc1ccccc1CNCCCCCCNCCCCCCNCCSSCCNCCCCCCNCCCCCCNCc1ccccc1OC.Cl.O					Not Active	

Further lines, results first:

IC50 [1] [nM]	IC50 [2] [µM]	IC50 (Rattus norvegicus [3]) [µM]	Selectivity [4]	IC50 (Rattus norvegicus [5])	IC50 [6] [µM]	Compound
1700	2.1	51.3	< 2.57			COc1ccccc1CNCCCCCCCCCCCNCCSSCCNCCCCCCCCCCCNCc1ccccc1OC
5400	22.7	98.5	80.7		1.22	COc1ccccc1CNCCCCCCCCNCCSSCCNCCCCCCCCNCc1ccccc1OC
1700	2.1	8.23	< 0.41			COc1ccccc1CNCCCCCCCCCCCCNCCSSCCNCCCCCCCCCCCCNCc1ccccc1OC
2200	2.8	62.8	< 3.14			COc1ccccc1CNCCCCCCCCCCNCCSSCCNCCCCCCCCCCNCc1ccccc1OC
2300	6	68	< 3.4			COc1ccccc1CNCCCCCCCCCNCCSSCCNCCCCCCCCCNCc1ccccc1OC
				Not Active		COc1ccccc1CNCCCNCCCCCCCCNCCSSCCNCCCCCCCCNCCCNCc1ccccc1OC.Cl.O
20600	41.3	55.2	53.1		1.04	COc1ccccc1CNCCCCCCCNCCSSCCNCCCCCCCNCc1ccccc1OC

Source: ChEMBL document CHEMBL1124213, “Structure-activity relationships among benextramine-related tetraamine disulfides. Chain length effect on alpha-adrenoreceptor blocking activity” (J Med Chem, 1988)
